From paper PMC6407913, “DREADD Agonist 21 Is an Effective Agonist for Muscarinic-Based DREADDs in Vitro and in Vivo” (ACS Pharmacology & Translational Science, 2018)
Numbering of substitutions follows the chain as printed.

Key:
hM3Dq = target: T1, hM3Dq (Homo sapiens, UniProt P20309, A239G/Y149C); assay: Gq-mediated calcium release (FLIPR) assay; assay type: cell-based; details: CHO cells, mean ± SEM, read-out: pEC50 calcium mobilization (converted)
T1 construct: expressed in transfected cells

dopamine D1 receptors = dopamine D1 receptors (Homo sapiens, UniProt P21728); assay: cAMP signaling concentration-response, agonist mode; assay type: cell-based
dopamine D1 receptors, sequence (P21728 whole entry): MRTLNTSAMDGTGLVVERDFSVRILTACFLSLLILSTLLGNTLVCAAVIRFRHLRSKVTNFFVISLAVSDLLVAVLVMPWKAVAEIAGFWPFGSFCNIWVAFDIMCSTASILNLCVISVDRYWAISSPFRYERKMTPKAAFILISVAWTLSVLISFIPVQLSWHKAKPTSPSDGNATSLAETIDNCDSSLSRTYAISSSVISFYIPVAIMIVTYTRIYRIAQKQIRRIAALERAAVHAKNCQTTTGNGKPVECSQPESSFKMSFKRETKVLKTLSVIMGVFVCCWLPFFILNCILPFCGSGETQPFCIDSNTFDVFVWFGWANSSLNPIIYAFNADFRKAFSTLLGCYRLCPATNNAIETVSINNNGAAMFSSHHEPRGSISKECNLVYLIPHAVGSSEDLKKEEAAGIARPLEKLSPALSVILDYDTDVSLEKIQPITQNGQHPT
Protocol: HEK293 T cells were used for transient transfections and Gi mediated cAMP production assays. Assays were performed according to published procedures (PMID25895059, PRESTO-Tango paper). More detailed assay protocols are available at NIMH PDSP Web site (http://pdspdb.unc.edu/pdspWeb/?site=assays).
HEK293T cells in 10 cm plates were transfected with 4 μg of Glosensor and 4 μg of DNA encoding the human dopamine D1 receptor. The next day, cells were harvested and plated in polylysine-coated 384-well plates (Greiner) at a density of 20 000 cells/well in DMEM containing 1% dFBS. The next day, media was aspirated from each well and replaced with 20 μL of assay buffer containing 4 mM luciferin. Then, 10 μL of drugs were added 30 min later, and plates were read after 15 min.

hM4 = target: T2, hM4 (Homo sapiens, UniProt P08173); assay: pERK assay, antagonist mode (shift of ACh curve); assay type: cell-based; details: hM4, CHO cells
T2 construct: HA (hemagglutinin); expressed in transfected cells
T2 sequence (P08173 1-479): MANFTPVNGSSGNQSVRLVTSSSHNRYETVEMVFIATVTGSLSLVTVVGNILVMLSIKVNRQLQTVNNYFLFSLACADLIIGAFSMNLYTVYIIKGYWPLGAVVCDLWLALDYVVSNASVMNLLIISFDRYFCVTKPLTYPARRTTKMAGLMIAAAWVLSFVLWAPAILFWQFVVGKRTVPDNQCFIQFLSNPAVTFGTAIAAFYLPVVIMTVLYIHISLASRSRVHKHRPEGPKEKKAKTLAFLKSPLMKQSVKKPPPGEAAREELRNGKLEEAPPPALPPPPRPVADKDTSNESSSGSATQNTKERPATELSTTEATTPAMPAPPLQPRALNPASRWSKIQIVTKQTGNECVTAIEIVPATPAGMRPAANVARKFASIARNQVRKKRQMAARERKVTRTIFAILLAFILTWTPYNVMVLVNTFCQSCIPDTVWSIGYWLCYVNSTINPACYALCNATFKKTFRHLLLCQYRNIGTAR

D2 = D2 (Homo sapiens, UniProt P14416); assay: Gi1 BRET dissociation assay, antagonist mode; assay type: cell-based; details: human D2, HEK293T cells, vs quinpirole
D2, sequence (P14416 whole entry): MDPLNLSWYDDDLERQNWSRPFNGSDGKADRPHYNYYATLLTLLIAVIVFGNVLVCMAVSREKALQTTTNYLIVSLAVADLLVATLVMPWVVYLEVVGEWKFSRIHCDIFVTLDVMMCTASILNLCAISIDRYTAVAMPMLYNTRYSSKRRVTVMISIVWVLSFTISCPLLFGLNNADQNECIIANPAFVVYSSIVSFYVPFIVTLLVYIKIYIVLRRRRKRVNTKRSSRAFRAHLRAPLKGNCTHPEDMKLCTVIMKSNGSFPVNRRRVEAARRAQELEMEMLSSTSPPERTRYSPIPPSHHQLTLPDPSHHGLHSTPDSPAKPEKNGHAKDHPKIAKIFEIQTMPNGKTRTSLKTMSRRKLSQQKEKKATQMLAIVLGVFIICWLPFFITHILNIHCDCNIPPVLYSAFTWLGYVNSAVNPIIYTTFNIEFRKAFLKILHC
Protocol: (§1) Separate pcDNA plasmids containing the sequence for Gβ1, Gγ2-GFP^2, Gi1-Rluc8, and either human dopamine D2 receptor or histamine H4 receptor were cotransfected into HEK293T cells (in 10 cm plates) at 1.5 μg/construct using Transit-2020 (Mirus) at a ratio of 3 μL/μg Transit/DNA. The next day, cells were harvested and plated in DMEM containing 1% dFBS in polylysine-coated 96-well plates (Greiner) at 50 000 cells per well. Sixteen hours later, media was aspirated from each well, and cells were subsequently rinsed with 60 μL of assay buffer (20 mM HEPES, 1× Hanks Buffered Saline Solution, pH 7.4). Before drug treatment, 60 μL of fresh assay buffer was added to each well followed by 10 μL of 50 uM Coelenterazine 400a (Prolume). Luminescence and fluorescence were measured using an LB940 Mithras (Berthold technologies), and BRET was computed as the ratio of GFP^2 fluorescence to luciferase signal.
(§2) In the absence of C21 ([B] = 0), this equation becomes the standard four-parameter logistic equation for fitting agonist concentration–response data.

[1] = target: T3, human H4 histamine receptors (Homo sapiens, UniProt Q9H3N8); assay: Gi1 BRET dissociation assay, antagonist mode; assay type: cell-based; details: human H4, HEK293T cells, vs histamine
T3 construct: expressed in transfected cells; host or cells: HEK293T, transient (pcDNA plasmids)
T3 sequence (Q9H3N8 whole entry): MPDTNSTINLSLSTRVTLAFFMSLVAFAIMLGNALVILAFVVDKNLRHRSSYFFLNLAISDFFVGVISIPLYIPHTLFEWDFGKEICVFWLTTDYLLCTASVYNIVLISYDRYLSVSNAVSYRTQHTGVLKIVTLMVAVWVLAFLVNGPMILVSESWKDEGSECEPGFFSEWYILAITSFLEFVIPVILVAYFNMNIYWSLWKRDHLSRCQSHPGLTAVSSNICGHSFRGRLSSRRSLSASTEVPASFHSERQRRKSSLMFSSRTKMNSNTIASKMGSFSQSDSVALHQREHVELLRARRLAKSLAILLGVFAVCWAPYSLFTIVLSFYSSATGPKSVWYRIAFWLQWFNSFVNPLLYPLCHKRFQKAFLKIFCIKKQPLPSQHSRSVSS
Protocol: as §1, §2

hM4Di [2] = target: T4, hM4Di (Homo sapiens, UniProt P08173, A203G/Y113C); assay: whole-cell [3H]NMS competition binding
T4 sequence (P08173 1-479 Y113C/A203G): T2 sequence (P08173 1-479) with Y113C, A203G

hM1Dq = target: T5, hM1Dq (Homo sapiens, UniProt P11229, A196G/Y106C); assay: ERK1/2 phosphorylation (pERK1/2) assay
T5 sequence (P11229 1-460 Y106C/A196G): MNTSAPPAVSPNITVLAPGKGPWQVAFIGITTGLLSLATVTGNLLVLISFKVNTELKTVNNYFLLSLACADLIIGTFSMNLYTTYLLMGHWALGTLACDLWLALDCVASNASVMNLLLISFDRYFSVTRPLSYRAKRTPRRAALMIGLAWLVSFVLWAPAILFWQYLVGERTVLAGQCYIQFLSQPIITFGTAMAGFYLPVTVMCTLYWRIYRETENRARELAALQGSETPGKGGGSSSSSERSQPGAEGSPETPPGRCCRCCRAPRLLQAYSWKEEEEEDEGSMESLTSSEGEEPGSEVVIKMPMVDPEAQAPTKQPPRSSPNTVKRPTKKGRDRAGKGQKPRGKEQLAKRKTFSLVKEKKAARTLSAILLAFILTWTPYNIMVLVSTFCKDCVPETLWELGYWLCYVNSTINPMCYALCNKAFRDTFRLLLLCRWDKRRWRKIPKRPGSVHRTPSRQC

hM4Di [3] = target: T4, hM4Di; assay: ERK1/2 phosphorylation (pERK1/2) assay

T1 sequence (P20309 whole entry Y149C/A239G): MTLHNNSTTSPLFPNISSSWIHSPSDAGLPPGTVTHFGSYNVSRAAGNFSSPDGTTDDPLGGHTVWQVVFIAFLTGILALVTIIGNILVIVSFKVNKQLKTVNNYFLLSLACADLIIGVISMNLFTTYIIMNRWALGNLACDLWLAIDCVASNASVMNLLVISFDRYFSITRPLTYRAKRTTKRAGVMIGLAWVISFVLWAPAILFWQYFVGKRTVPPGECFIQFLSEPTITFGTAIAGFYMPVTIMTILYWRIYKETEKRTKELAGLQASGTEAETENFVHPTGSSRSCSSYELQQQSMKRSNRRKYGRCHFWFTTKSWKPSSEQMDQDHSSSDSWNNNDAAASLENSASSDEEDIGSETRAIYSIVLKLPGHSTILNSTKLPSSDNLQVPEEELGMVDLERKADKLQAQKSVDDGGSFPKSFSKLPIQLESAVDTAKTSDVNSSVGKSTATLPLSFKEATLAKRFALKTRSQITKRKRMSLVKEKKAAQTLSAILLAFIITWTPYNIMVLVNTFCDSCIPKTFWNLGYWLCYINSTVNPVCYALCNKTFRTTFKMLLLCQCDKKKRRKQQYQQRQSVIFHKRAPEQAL

c1ccc2c(c1)N=C(N1CCNCC1)c1ccccc1N2 [C21, 11-(1-piperazinyl)-5H-dibenzo[b,e][1,4]diazepine]
EC50 (hM3Dq): 0.00331 µM
agonist activity, follow-up concentration-response (cAMP) (dopamine D1 receptors): minimal activity
antagonist activity (shift of acetylcholine curve, pERK) (hM4): weak functional antagonism
antagonist activity, Gi-dissociation assay (D2): antagonism
antagonist activity, Gi-dissociation assay [1]: no antagonism was observed
Ki (hM4Di [2]): 0.178 µM
higher binding affinity at hM4Di than at wildtype hM4 (hM4Di [2]; hM4Di vs hM4): > 10 fold
EC50 (hM1Dq): 0.288 µM
EC50 (hM4Di [3]): 0.017 µM
